Assay results taken from patent US20260273020A1, “OBESTATIN FOR USE AS ANTINEOPLASTIC AGENT IN THE TREATMENT OF PANCREATIC CANCER” (SERVIZO GALEGO DE SAÚDE, priority 2023, published 2026).

What was measured:
PANC1 cells = assay: Proliferation assay, cell counting under chronic obestatin treatment; type: cell-based, human
Method: (§1) PANC1 cell line was obtained from ECACC (87092802; ECACC, Wiltshire, UK). RWP1 and BxPC3 human pancreatic cancer cell lines were kindly provided by FX Real (Epithelial Carcinogenesis Group, Cancer Cell Biology Programme, Spanish National Cancer Research Centre-CNIO, Madrid, ES). In brief, PANC1 cells were cultured in DMEM (supplemented with 4.5 g/L glucose, 10% FBS, and 1% penicillin/streptomycin), RWP1 and BxPC3 cell lines were maintained in RPMI (supplemented with 10% FBS and 1% penicillin/streptomycin) and incubated in an atmosphere containing 5% CO2 at 37° C. These cells were periodically tested and resulted negative for mycoplasma contamination.
(§2) For the analysis of proliferation the cells were seeded on 12-well plates at an amount of 50,000 cells per well and maintained for 24 h in culture media (see above) to allow attachment. The medium was completely removed and replaced with serum-free media for additional 24 h. Then, cells were treated or not with different doses of obestatin: mouse obestatin (corresponding to SEQ ID NO: 4) for KPC FC1242 and human obestatin (corresponding to SEQ ID NO: 1) for PANC1, RWP1 and BxPC3. The following treatments were used: 0% FBS as negative control, 10% FBS as positive control, 100 nM obestatin, 200 nM obestatin, 100 nM obestatin+10% FBS, and 200 nM obestatin+10% FBS. These treatments were administered every 24 h for three days. Twenty-four h after the last treatment, the cells were trypsinized and manually counted with a Neubauer camera.
(§3) The total cells were calculated using the following equations counting 10 squares: […]
(§4) In all cases, each experiment point was replicated eight times.

RWP1 cells = assay: as above; type: cell-based, human
Method: as §1, §2, §3, §4

BxPC3 cells = assay: as above; type: cell-based, human
Method: as §1, §2, §3, §4

[1] = Pancreatic cancer associated cachexia: skeletal muscle weight, food intake; type: in vivo, C57BL/6J mice; conditions: tumour-bearing mice
Method: FIG. 9. Analysis of obestatin action on skeletal muscle cachexia of C57BL/6J mice (n=4) orthotopically injected with KPC FC1242 cells and treated with vehicle [NaCl, 0.9% (w/v)] or obestatin (500 nmol/Kg/72 h). Tibialis anterior (TA), gastrocnemius (GA), soleus (SOL), extensor digitorum longus (EDL) and diaphragm (DIA) muscles were collected and weighted at day 12 after tumour injection. Results are expressed as the percentage of the weight recovery of the muscle of obestatin-treated mice related to vehicle treated mice (mean±SE).
In vivo experiments were carried out in C57BL/6 mice, obtained from the Central Animal Facility of the University of Santiago de Compostela. Male C57BL/6 mice, weighing 25 g on arrival, were housed four per cage at a constant temperature of 22±2° C. and at a 12 h light/dark cycle. The mice were kept for 5 days for acclimation, with free access to water, and a standard mice chow with a composition of 5.5% fat, 23% protein and 70% carbohydrate (SAFE-Panlab, Spain).
The mice were assigned to the different groups (n=4/group) and treated for five days with: 1) healthy control, 2) tumour+vehicle [NaCl, 0.9% (w/v)], and 3) tumour+obestatin (500 nmol/Kg/72 h). Mice without tumoral cells treatment were utilized as healthy controls.
Mice were weighed at set times over the 15-day period. The sterilized surgical material was used for the tissue extraction. Pancreases and muscles were carefully removed from each animal minimizing contamination with surrounding tissue or mouse hair. Pancreases and muscles were weighed. The skeletal muscles selected were: tibialis anterior, TA; extensor digitorum longus, EDL; gastrocnemius, GAST; soleus, SOL; and diaphragm, DIA. Pancreases were also measured with a scale (cm) and pictures were taken. • Histology—Pancreas samples for histology were fixed in 4% paraformaldehyde in PBS at room temperature overnight. After fixation, samples were dehydrated and embedded in paraffin blocks. For this study, 3-micron sections were cut from each block and placed on pre-cleaned slides (Thermo Fisher Scientific, Waltham, MA, USA). The sectioned tissue slides were covered with a thin layer of paraffin, stoked at 60° C. for 1 hour and stored protected from light at room temperature to preserve the antigenicity of sections. • Immunoblot—For immunoblot analysis, pancreases were immediately frozen in dry ice and stored at −80° C. until use. Tissues were homogenized using a TissueLyser II tissue homogenizer (Qiagen, Hilden, DE), in 200 μL of RIPA lysis buffer at 30 Hz for 3 min. The lysates were clarified by centrifugation (18,000×g, 15 min, 4° C.), and the protein concentration was quantified by the Quantipro™ BCA assay kit (Sigma-Aldrich, St. Louis, MO, US).

[2] = 100 nM obestatin+10% FBS each 24 h for 72 h
[3] = human obestatin (SEQ ID NO: 1) 100 nM each 24 h for 72 h, serum-free

## obestatin
PANC1 cells; [2]
  effect on FBS-mediated proliferation: significant inhibitory effect
PANC1 cells; [3]
  proliferation (number of cells): does not activate the proliferation
RWP1 cells; [2]
  effect on FBS-mediated proliferation: significant inhibitory effect
RWP1 cells; [3]
  proliferation (number of cells): does not activate the proliferation
BxPC3 cells; [2]
  effect on FBS-mediated proliferation: significant inhibitory effect
BxPC3 cells; [3]
  proliferation (number of cells): does not activate the proliferation
[1]; obestatin 500 nmol/Kg/72 h
  effect on skeletal muscle weight loss, diaphragm (DIA): No effect
  reduction of skeletal muscle weight loss (weight recovery vs vehicle treated mice), extensor digitorum longus (EDL): 62.2±8.1%
  reduction of skeletal muscle weight loss (weight recovery vs vehicle treated mice), gastrocnemius (GAS): 10.6±3.2%
  reduction of skeletal muscle weight loss (weight recovery vs vehicle treated mice), soleus (SOL): 33.0±7.3%
  reduction of skeletal muscle weight loss (weight recovery vs vehicle treated mice), tibialis anterior (TA): 30.8±6.1%
[1]; obestatin treatment
  food intake: maintaining food intake
